Measured values from patent publication US20260217687A1 (NeoPhore Limited, priority 2023, published 2026).
pIC50: −log10 of the molar value.

What follows are compounds tested against T1, recombinant N-terminal MLH1 (residues 15-340) (Homo sapiens, UniProt P40692) (assay: Fluorescence Polarisation Assay for MLH1). Details: 100 nM N-terminal MLH1, 5 nM probe compound.
T1 construct: recombinant N-terminal MLH1 (residues 15-340)
T1 sequence (P40692 15-340): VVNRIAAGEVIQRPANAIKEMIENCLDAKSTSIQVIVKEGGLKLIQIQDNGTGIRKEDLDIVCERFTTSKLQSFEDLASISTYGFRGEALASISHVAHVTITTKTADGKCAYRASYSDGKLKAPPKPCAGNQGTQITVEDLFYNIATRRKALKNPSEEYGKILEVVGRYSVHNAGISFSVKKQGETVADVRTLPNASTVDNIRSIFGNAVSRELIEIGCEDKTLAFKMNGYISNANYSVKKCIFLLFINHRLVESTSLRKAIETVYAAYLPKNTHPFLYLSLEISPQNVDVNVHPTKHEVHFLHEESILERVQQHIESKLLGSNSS
Format: binding
Experimental: Fluorescence Polarisation Assay for MLH1
Test compounds, as 10 mM DMSO stocks, were dispensed into a 384-well Low Flange Black Flat Bottom Polystyrene Non-binding Surface plate (Corning®, item number 3575) using a Labcyte Echo acoustic liquid handler. […] 20 μL of a 2× solution (200 nM) of recombinant N-terminal MLH1 (residues 15-340) in assay buffer (25 mM HEPES, pH 7.5, 250 mM NaCl, 10 mM MgCl2, 0.01% Triton X-100, 5 mM Dithiothreitol) was added to all wells in columns 1-23 and 20 μL assay buffer was added to all wells in column 24 using an E1-ClipTip pipette (ThermoFisher). Plates were centrifuged for 1 minute at 250 xg and were incubated at room temperature for 30 minutes prior to the addition of 20 μL of 2×(10 nM) of 5-((5-(4-((2-(2-(Benzyloxy)-4,6-dihydroxybenzoyl)isoindolin-5-yl)methyl)piperazin-1-yl)pentyl)carbamoyl)-2-(6-(dimethylamino)-3-(dimethyliminio)-3H-xanthen-9-yl)benzoate (referred to hereinafter as “probe compound”) in assay buffer (prepared from a 1 mM DMSO stock) with an E1-ClipTip pipette (ThermoFisher). The final concentration of N-terminal MLH1 was 100 nM and the final concentration of the probe compound was 5 nM. Compound plates were centrifuged for 1 minute at 250 xg for 1 minute and immediately read on a PheraStar FSX (fitted with 384-well aperture spoon and 590 675 675 FP optic module). The gain and focus were adjusted before each plate was read so that the polarisation of a no enzyme control (column 24) was equal to 35 mP. Data were normalised against the no inhibitor controls (column 23) and no enzyme controls (column 24).

Row | Structure (SMILES) | pIC50
1 | COc1ccc2c(c1)CN(C(=O)c1c(O)cc(C(F)F)cc1OCc1ccccc1)CC2 [Example 4.38, (2-(Benzyloxy)-4-(difluoromethyl)-6-hydroxyphenyl)(7-methoxy-3,4-dihydroisoquinolin-2(1H)-yl)methanone] | 5.00 to 6.00
2 | CN1CC[C@H](Nc2cccc3c2CN(C(=O)c2c(O)cc(C(F)F)cc2OCc2ccccc2)C3)C1=O [Example 4.12, (S)-3-((2-(2-(Benzyloxy)-4-(difluoromethyl)-6-hydroxybenzoyl)isoindolin-4-yl)amino)-1-methylpyrrolidin-2-one] | 6.00 to 7.00
3 | N#Cc1cc(O)c(C(=O)N2CCc3cccc(N[C@H]4CCOC4)c3C2)c(OCc2ccccc2)c1 [Example 17, (S)-3-(Benzyloxy)-5-hydroxy-4-(8-((tetrahydrofuran-3-yl)amino)-1,2,3,4-tetrahydroisoquinoline-2-carbonyl)benzonitrile] | 6.00 to 7.00
4 | O=C(c1c(O)cc(C(F)F)cc1OCc1ccccc1)N1CCc2cc(NC3CCOC3)ccc21 (single isomer, unassigned) [Example 27.5b, (S)-(2-(Benzyloxy)-4-(difluoromethyl)-6-hydroxyphenyl)(5-((tetrahydrofuran-3-yl)amino)indolin-1-yl)methanone or (R)-(2-(Benzyloxy)-4-(difluoromethyl)-6-hydroxyphenyl)(5-((tetrahydrofuran-3-yl)amino)indolin-1-yl)methanone] | 6.00 to 7.00
5 | CNc1cccc2c1CN(C(=O)c1c(O)cc(C(F)F)cc1OCc1ccccc1)CC2 [Example 4.36, (2-(Benzyloxy)-4-(difluoromethyl)-6-hydroxyphenyl)(8-(methylamino)-3,4-dihydroisoquinolin-2(1H)-yl)methanone] | 5.00 to 6.00
6 | O=C(c1c(O)cc(F)cc1OCc1ccccc1)N1Cc2cccc(N[C@@H]3CCOC3)c2C1 [Example 6, (R)-(2-(Benzyloxy)-4-fluoro-6-hydroxyphenyl)(4-((tetrahydrofuran-3-yl)amino)isoindolin-2-yl)methanone] | 5.00 to 6.00
7 | CN1CCC(Oc2ccc3c(c2)CN(C(=O)c2c(O)cc(C(F)F)cc2OCc2ccccc2)CC3)CC1 [Example 4.44, (2-(Benzyloxy)-4-(difluoromethyl)-6-hydroxyphenyl)(7-((1-methylpiperidin-4-yl)oxy)-3,4-dihydroisoquinolin-2(1H)-yl)methanone] | 6.00 to 7.00
8 | O=C(c1c(O)cc(F)cc1OCc1ccccc1)N1Cc2cccc(N[C@H]3CCOC3)c2C1 [Example 5, (S)-(2-(Benzyloxy)-4-fluoro-6-hydroxyphenyl)(4-((tetrahydrofuran-3-yl)amino)isoindolin-2-yl)methanone] | 6.00 to 7.00
9 | O=C(c1c(O)cc(C(F)F)cc1OCc1ccccc1)N1Cc2cccc(N[C@@H]3CCOC3)c2C1 [Example 3, (R)-(2-(Benzyloxy)-4-(difluoromethyl)-6-hydroxyphenyl)(4-((tetrahydrofuran-3-yl)amino)isoindolin-2-yl)methanone] | 6.00 to 7.00
10 | CN1CCC(Oc2ccc3c(c2)CCN(C(=O)c2c(O)cc(C(F)F)cc2OCc2ccccc2)C3)CC1 [Example 4.45, (2-(Benzyloxy)-4-(difluoromethyl)-6-hydroxyphenyl)(6-((1-methylpiperidin-4-yl)oxy)-3,4-dihydroisoquinolin-2(1H)-yl)methanone] | 6.00 to 7.00
11 | CN(C)C(=O)CNc1cccc2c1CN(C(=O)c1c(O)cc(C(F)F)cc1OCc1ccccc1)C2 [Example 4.29, 2-((2-(2-(Benzyloxy)-4-(difluoromethyl)-6-hydroxybenzoyl)isoindolin-4-yl)amino)-N, N-dimethylacetamide] | 6.00 to 7.00
12 | N#Cc1cc(O)c(C(=O)N2Cc3cccc(N[C@H]4CCOC4)c3C2)c(OCc2ccccc2)c1 [Example 12, (S)-3-(Benzyloxy)-5-hydroxy-4-(4-((tetrahydrofuran-3-yl)amino)isoindoline-2-carbonyl)benzonitrile] | 6.00 to 7.00
13 | CN(C)Cc1cc2c(cn1)CN(C(=O)c1c(O)cc(C#N)cc1OCc1ccccc1)C2 [Example 27, 3-(Benzyloxy)-4-(6-((dimethylamino)methyl)-2,3-dihydro-1H-pyrrolo[3,4-c]pyridine-2-carbonyl)-5-hydroxybenzonitrile] | 5.00 to 6.00
14 | O=C(c1c(O)cc(C(F)F)cc1OCc1ccccc1)N1Cc2ccc(Oc3ccncc3)cc2C1 [Example 4.60, (2-(Benzyloxy)-4-(difluoromethyl)-6-hydroxyphenyl)(5-(pyridin-4-yloxy)isoindolin-2-yl)methanone] | 6.00 to 7.00
15 | CN1CC[C@H](Oc2ccc3c(c2)CCN(C(=O)c2c(O)cc(C(F)F)cc2OCc2ccccc2)C3)C1 [Example 4.64, (S)-(2-(Benzyloxy)-4-(difluoromethyl)-6-hydroxyphenyl)(6-((1-methylpyrrolidin-3-yl)oxy)-3,4-dihydroisoquinolin-2(1H)yl)methanone] | 6.00 to 7.00
16 | O=C(c1c(O)cc(C(F)F)cc1OCc1ccccc1)N1Cc2cccc(NC3COC3)c2C1 [Example 4.4, (2-(Benzyloxy)-4-(difluoromethyl)-6-hydroxyphenyl)(4-(oxetan-3-ylamino)isoindolin-2-yl)methanone] | 6.00 to 7.00
17 | O=C(c1c(O)cc(C(F)F)cc1OCc1ccccn1)N1CCc2cccc(N[C@H]3CCOC3)c2C1 [Example 4.10, (S)-(4-(Difluoromethyl)-2-hydroxy-6-(pyridin-2-ylmethoxy)phenyl)(8-((tetrahydrofuran-3-yl)amino)-3,4-dihydroisoquinolin-2(1H)-yl)methanone] | 6.00 to 7.00

Now from value to compound:

Row | pIC50 | Structure (SMILES)
18 | 6.00 to 7.00 | CN1C[C@H](Nc2cccc3c2CN(C(=O)c2c(O)cc(C#N)cc2OCc2ccccc2)C3)CC1=O (single isomer, unassigned) [Example 10.7, (R)-3-(Benzyloxy)-5-hydroxy-4-(4-((1-methyl-5-oxopyrrolidin-3-yl)amino)isoindoline-2-carbonyl)benzonitrile or (S)-3-(benzyloxy)-5-hydroxy-4-(4-((1-methyl-5-oxopyrrolidin-3-yl)amino)isoindoline-2-carbonyl)benzonitrile]
19 | 6.00 to 7.00 | CN1CC(Nc2cccc3c2CN(C(=O)c2c(O)cc(Cl)cc2OCc2ccccc2)C3)C1 [Example 10.20, (2-(Benzyloxy)-4-chloro-6-hydroxyphenyl)(4-((1-methylazetidin-3-yl)amino)isoindolin-2-yl)methanone]
20 | 5.00 to 6.00 | CC(=O)N1CCC[C@@H](Nc2cccc3c2CN(C(=O)c2c(O)cc(C#N)cc2OCc2ccccc2)C3)C1 [Example 10.17, (R)-4-(4-((1-Acetylpiperidin-3-yl)amino)isoindoline-2-carbonyl)-3-(benzyloxy)-5-hydroxybenzonitrile]
21 | 5.00 to 6.00 | CN(C)CCOc1ccc2c(c1)CCN(C(=O)c1c(O)cc(C#N)cc1OCc1ccccc1)C2 [Example 10.29, 3-(Benzyloxy)-4-(6-(2-(dimethylamino)ethoxy)-1,2,3,4-tetrahydroisoquinoline-2-carbonyl)-5-hydroxybenzonitrile]
22 | 6.00 to 7.00 | COc1cc2c(c(N[C@H]3CCOC3)c1)CN(C(=O)c1c(O)cc(Cl)cc1OCc1ccccc1)C2 [Example 10.2, (S)-(2-(Benzyloxy)-4-chloro-6-hydroxyphenyl)(6-methoxy-4-((tetrahydrofuran-3-yl)amino)isoindolin-2-yl)methanone]
23 | 6.00 to 7.00 | CN1CC[C@H](Nc2cccc3c2CN(C(=O)c2c(O)cc(C#N)cc2OCc2ccccc2)C3)C1=O [Example 10.27, (S)-3-(Benzyloxy)-5-hydroxy-4-(4-((1-methyl-2-oxopyrrolidin-3-yl)amino)isoindoline-2-carbonyl)benzonitrile]
24 | 6.00 to 7.00 | CN(C)CCOc1nc2c(c(NC3CCOC3)n1)CN(C(=O)c1c(O)cc(C(F)F)cc1OCc1ccccc1)CC2 (centres unmarked) [Example 27.17, (2-(Benzyloxy)-4-(difluoromethyl)-6-hydroxyphenyl)(2-(2-(dimethylamino)ethoxy)-4-((tetrahydrofuran-3-yl)amino)-7,8-dihydropyrido[4,3-d]pyrimidin-6(5H)-yl)methanone]
25 | 5.00 to 6.00 | O=C(c1c(O)cc(C(F)F)cc1OCc1ccccc1)N1CCc2ccncc21 [Example 27.23, (2-(Benzyloxy)-4-(difluoromethyl)-6-hydroxyphenyl)(2,3-dihydro-1H-pyrrolo[2,3-c]pyridin-1-yl)methanone]
26 | 5.00 to 6.00 | O=C(c1c(O)cc(C(F)F)cc1OCC12CC(CO1)C2)N1CCc2cccc(N[C@H]3CCOC3)c2C1 [Example 28.1, (S)-(2-((2-Oxabicyclo[2.1.1]hexan-1-yl)methoxy)-4-(difluoromethyl)-6-hydroxyphenyl)(8-((tetrahydrofuran-3-yl)amino)-3,4-dihydroisoquinolin-2(1H)-yl)methanone]
